Measured values: ChEMBL document CHEMBL1134228, “Structure-activity analysis of truncated orexin-A analogues at the orexin-1 receptor” (Bioorg Med Chem Lett, 2001)
Calls of active or inactive are those of the source. The calls are words filed in the database; no cut-off is given here.

Test system: CHO
Assay: Percentage response for agonist like activity at 10 uM, relative to maximal orexin-A induced response in CHO cells was determined
Format: functional, Cricetulus griseus
Conditions: not given

Compound	Activity
CC[C@H](C)[C@H](NC(=O)[C@@H](C)NC(=O)[C@H](C)NC(=O)[C@H](C)NC(=O)[C@H](Cc1c[nH]cn1)NC(=O)[C@H](CC(N)=O)NC(=O)CNC(=O)[C@H](C)NC(=O)CNC(=O)[C@H](Cc1c[nH]cn1)NC(=O)[C@H](CC(C)C)NC(=O)[C@H](CC(C)C)NC(=O)[C@H](CCC(=O)O)NC(=O)[C@H](Cc1ccc(O)cc1)NC(=O)[C@H](CC(C)C)NC(=O)[C@@H](N)CCCN=C(N)N)C(=O)N[C@@H](CC(C)C)C(=O)N[C@H](C(=O)N[C@@H](CC(C)C)C(N)=O)[C@@H](C)O	15%
H-RLYELAHGAGNHAAGILTL-NH2	37%
H-RLYELLHGAGNHAAGILTA-NH2	15%
H-ELLHGAGNHAAGILTL-NH2	13%
H-RAYELLHGAGNHAAGILTL-NH2	71%
H-RLYELLHGAGNHAAGILAL-NH2	39%
H-RLYELLHGAGNAAAGILTL-NH2	61%
H-RLYEALHGAGNHAAGILTL-NH2	60%
H-LLHGAGNHAAGILTL-NH2	16%
H-YELLHGAGNHAAGILTL-NH2	40%
H-RLYELLHGAGNHAAGIATL-NH2	12%

Biological target: T1, Orexin/Hypocretin receptor type 1 (Homo sapiens, UniProt O43613)
T1 sequence (O43613 whole entry): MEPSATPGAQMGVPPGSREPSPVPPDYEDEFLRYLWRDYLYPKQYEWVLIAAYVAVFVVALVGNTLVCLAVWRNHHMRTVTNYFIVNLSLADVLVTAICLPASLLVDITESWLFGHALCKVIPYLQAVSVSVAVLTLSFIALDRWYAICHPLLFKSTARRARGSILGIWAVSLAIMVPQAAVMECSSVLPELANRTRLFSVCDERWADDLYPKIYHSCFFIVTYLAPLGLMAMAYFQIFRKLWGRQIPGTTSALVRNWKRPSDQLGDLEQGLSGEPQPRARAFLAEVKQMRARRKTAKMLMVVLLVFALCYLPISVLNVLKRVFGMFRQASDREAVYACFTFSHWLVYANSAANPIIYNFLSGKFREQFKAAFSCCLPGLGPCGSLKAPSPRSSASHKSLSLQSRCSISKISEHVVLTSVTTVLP
Assay: Binding affinity to Orexin receptor type 1 was determined using laser scanning cytometry
Conditions: not given

Ki	Compound
66.1 µM	H-ELLHGAGNHAAGILTL-NH2
0.269 µM	CC[C@H](C)[C@H](NC(=O)CNC(=O)[C@H](C)NC(=O)[C@H](C)NC(=O)[C@H](Cc1cnc[nH]1)NC(=O)[C@H](CC(N)=O)NC(=O)CNC(=O)[C@H](C)NC(=O)CNC(=O)[C@H](Cc1cnc[nH]1)NC(=O)[C@H](CC(C)C)NC(=O)[C@H](CC(C)C)NC(=O)[C@H](CCC(=O)O)NC(=O)[C@H](Cc1ccc(O)cc1)NC(=O)[C@H](CC(C)C)NC(=O)[C@@H](N)CCCNC(=N)N)C(=O)N[C@@H](CC(C)C)C(=O)N[C@H](C(=O)N[C@@H](CC(C)C)C(N)=O)[C@@H](C)O

Test system: not listed separately
Assay: Functional potency was determined by concentration required for activation of OX1 (Orexin-1) receptor expressed in chinese hamster ovary cells (CHO) and increasing the intracellular calcium concentration
Format: cell-based
Conditions: Cricetulus griseus

EC50	Compound
195 nM	H-RLYALLHGAGNHAAGILTL-NH2
355 nM	CC[C@H](C)[C@H](NC(=O)CNC(=O)[C@H](C)NC(=O)[C@H](C)NC(=O)[C@H](Cc1cnc[nH]1)NC(=O)[C@H](CC(N)=O)NC(=O)CNC(=O)[C@H](C)NC(=O)CNC(=O)[C@H](Cc1cnc[nH]1)NC(=O)[C@H](CC(C)C)NC(=O)[C@H](CC(C)C)NC(=O)[C@H](CCC(=O)O)NC(=O)[C@H](Cc1ccc(O)cc1)NC(=O)[C@H](CC(C)C)NC(=O)[C@@H](N)CCCNC(=N)N)C(=O)N[C@@H](CC(C)C)C(=O)N[C@H](C(=O)N[C@@H](CC(C)C)C(N)=O)[C@@H](C)O
832 nM	H-RLYELLHGAANHAAGILTL-NH2
776 nM	H-RLAELLHGAGNHAAGILTL-NH2
347 nM	H-ALYELLHGAGNHAAGILTL-NH2
646 nM	H-RLYELLHAAGNHAAGILTL-NH2
1290 nM	H-RLYELLAGAGNHAAGILTL-NH2

Test system: CHO
Assay: Percentage response for agonist like activity at 10 uM, relative to maximal orexin-A induced response in CHO cells was determined; Inactive
Format: functional, cell-based
Conditions: Cricetulus griseus

Compound	Activity
H-GILTL-NH2	inactive
CC[C@H](C)[C@H](NC(=O)CNC(=O)[C@H](C)NC(=O)[C@H](C)NC(=O)[C@H](Cc1c[nH]cn1)NC(=O)[C@H](CC(N)=O)NC(=O)CNC(=O)[C@H](C)NC(=O)CNC(=O)[C@H](Cc1c[nH]cn1)NC(=O)[C@H](CC(C)C)NC(=O)[C@H](CC(C)C)NC(=O)[C@H](CCC(=O)O)NC(=O)[C@H](Cc1ccc(O)cc1)NC(=O)[C@H](CC(C)C)NC(=O)[C@@H](N)CCCN=C(N)N)C(=O)N[C@@H](CC(C)C)C(=O)N[C@@H](C(=O)N[C@@H](CC(C)C)C(N)=O)[C@@H](C)O	inactive

Biological target: T2, Orexin/Hypocretin receptor type 1 (Homo sapiens) (UniProt O43613)
T2 sequence (whole entry): T1 sequence (O43613 whole entry)
Assay: Compound was tested for antagonist activity expressed as percentage response at 10 uM, relative to maximal orexin-A induced response against OX1 receptor; IA is Inactive
Format: functional
Conditions: not given

Activity	Compound
inactive	H-GNHAAGILTL-NH2

Test system: CHO
Assay: Percentage response at 10 uM, relative to maximal orexin-A induced response; Inactive
Format: functional, cell-based
Conditions: Cricetulus griseus

Compound	Activity
H-RLYELLHGAGNHAAGALTL-NH2	inactive
